Assay results taken from US4529737A, “Analgesic and anti-inflammatory arylalkanoic acid phthalidyl esters and pharmaceutical compositions thereof” (priority 1979, dated 1985).
Where two headings read alike, the source gives them in different places.

Tests used:
[1] = tail compression test in mice (analgesic activity); format: in vivo, mouse; parameters: unit not given here; details: values marked * (I, II, III, VII) are statistically significant
Source text: The tail compression test has been carried out in mice according to the method described by C. Bianchi (Brit. J. Pharmacol., 11, 104; 1956) by determining the time in seconds between the algic stimulation and the reaction of the mouse.

[2] = carrageenin-induced rat paw edema test (anti-inflammatory activity); format: in vivo; parameters: unit not given here; details: oral, one hour before 2% carrageenin, paw volume 5 hours after, values marked * (I, V, VI, VII, VIII) are statistically significant
Source text: For the determination of the anti-inflammatory activity, the carrageenin-induced rat paw edema test, as a modification of the method reported by C. A. Winth et al. (Proc. Soc. Exptl. Biol. Med., 111, 544; 1962) has been used. This method involves the reduction of the edema caused by the injection of a 2% carrageenin solution in the rat paw. The compounds under examination have been administered by oral route one hour before the injection of the edemigenic agent. The volume of the rat paw has been measured by a plethismometer before and 5 hours after the injection of the carrageenin.

[3] = ulcerogenic activity in rats (DU50); details: rat, in vivo
Source text: The ulcerogenic activity is expressed as DU50 in rats according to the method described by Dabrodie et al (Science, 170, 183; 1970).

[4] = head DL50*: data statistically significant
in vivo [5] = details: mouse
in vivo [6] = details: rat
[7] = rats, head DU50*: data statistically significant, read-out: DU50 ulcerogenic activity

Row | Structure (SMILES) | Analgesic activity DE50 [1] | Anti-inflammatory activity DE50 [2] | TD50 [3] [mg/kg] | DL50 acute toxicity, rat [4] [mg/kg] | LD50 (in vivo [5]) [mg/kg] | LD50 (in vivo [6]) [mg/kg] | TD50 [3, 7] [mg/kg]
1 | CC(C)Cc1ccc(C(C)C(=O)O)cc1 (stereo not drawn) [Compound I, 2-(4-isobutylphenyl)propionic acid, reference compound] | 5.28 | 59.14 | 85.9 | 1480.00 |  |  | 
2 | CC(C)Cc1ccc(C(C)C(=O)OC2OC(=O)c3ccccc32)cc1 (stereo not drawn) [Compound IA, phthalidyl 2-(4-isobutylphenyl)propionate] | 2.08 | 4.30 | 144 |  | 1540 | 2180 | 
3 | COc1ccc2cc([C@H](C)C(=O)O)ccc2c1 [Compound II, d-2-(6-methoxy-2-naphthyl)propionic acid, reference compound] | 21.90 | 16.36 |  |  |  |  | 78.7
4 | COc1ccc2cc(C(C)C(=O)OC3OC(=O)c4ccccc43)ccc2c1 (stereo not drawn) [Compound IIA, phthalidyl d-2-(6-methoxy-2-naphthyl)propionate] | 5.81 | 14.82 | 133 |  | 2140 | 1060 | 
5 | CC(C(=O)O)c1cccc(C(=O)c2ccccc2)c1 (stereo not drawn) [Compound III, 2-(3-benzoylphenyl)propionic acid, reference compound] | 3.01 | 4.36 |  |  |  |  | 31.5
6 | CC(C(=O)OC1OC(=O)c2ccccc21)c1cccc(C(=O)c2ccccc2)c1 (stereo not drawn) [Compound IIIA, phthalidyl 2-(3-benzoylphenyl)propionate] | 1.34 | 5.15 | 76.7 |  | 514 | 342 | 
7 | CC(C(=O)O)c1ccc(N2Cc3ccccc3C2=O)cc1 (stereo not drawn) [Compound IV, 2-[4-(1-oxo-2-isoindolinyl)phenyl]propionic acid, reference compound] | 2.58 | 5.45 | 51.1 |  | 536 | 62.3 | 
8 | CC(C(=O)OC1OC(=O)c2ccccc21)c1ccc(N2Cc3ccccc3C2=O)cc1 (stereo not drawn) [Compound IVA, phthalidyl 2-[4-(1-oxo-2-isoindolinyl)phenyl]propionate] | 2.18 | 4.45 | 116 |  | 987 | 234 | 
9 | C=CCOc1ccc(CC(=O)O)cc1Cl [Compound V, 4-allyloxy-3-chlorophenylacetic acid, reference compound] | 2.43 | 1058.45 | 214 |  |  |  | 
10 | C=CCOc1ccc(CC(=O)OC2OC(=O)c3ccccc32)cc1Cl (stereo not drawn) [Compound VA, phthalidyl 4-allyloxy-3-chlorophenylacetate] | 2.50 | 117.34 | 380 |  | 2060 | 1770 | 
11 | O=C(O)Cc1ccccc1Nc1c(Cl)cccc1Cl [Compound VI, 2-(2,6-dichloroanilino)phenylacetic acid, reference compound] | 3.81 | 189.54 |  |  |  |  | 13.1
12 | O=C(Cc1ccccc1Nc1c(Cl)cccc1Cl)OC1OC(=O)c2ccccc21 (stereo not drawn) [Compound VIA, phtalidyl 2-(2,6-dichloroanilino)phenylacetate] | 4.33 | 144.21 | 26.1 |  | 593 | 342 | 
13 | O=C(O)CCC(=O)c1ccc(-c2ccccc2)cc1 [Compound VII, 4-(4-biphenylyl)-4-oxobutyric acid, reference compound] | 4.02 | 30.53 | 78.7 |  |  |  | 
14 | O=C(CCC(=O)c1ccc(-c2ccccc2)cc1)OC1OC(=O)c2ccccc21 (stereo not drawn) [Compound VIIA, phthalidyl 4-(4-biphenylyl)-4-oxobutyrate] | 2.95 | 20.08 | 146 |  | 1400 | 1380 | 
15 | O=C(O)Cc1ccc(-c2ccccc2)cc1 [Compound VIII, 4-biphenylylacetic acid, reference compound] | 3.07 | 21.79 | 65.3 |  | 750 | 635 | 
16 | O=C(Cc1ccc(-c2ccccc2)cc1)OC1OC(=O)c2ccccc21 (stereo not drawn) [Compound VIIIA, phtalidyl 4-biphenylylacetate] | 2.78 | 13.28 | 186 |  | 1410 | 1170 | 
